Values joined by “and” are separate entries in the source; they are usually repeats but may differ in a detail not shown here. Equal values may be shown once.
Experiments:
Type in all cases: cell-based
T-47D cells = assay: Inhibition of cell proliferation in T-47D cells (CCK-8, 6 days); settings: 6 days of treatment
Source text: Test Example 2: Inhibitory effect of the PROTAC compounds provided in the present disclosure on cell proliferation in T-47D cells (source ATCC)
The complete medium required for T-47D cells was 1640 ( ATCC, Product number: A10491-01) basal medium containing 10% fetal bovine serum. T-47D cells were inoculated in 96-well plates at a density of 3,000 cells/well, and different concentrations of the PROTAC compounds 1-55 provided in the examples of the present disclosure and a positive control sample ARV-471 (source: Innochem) were prepared to treat cells, and the cells were treated at 37°C in a cell culture incubator with 5% CO2 for 6 days. Cell viability was detected using a CCK-8 kit (Beyotime, Product number: C0040) according to the manufacturer's instructions. […] Table 2 IC50 values for inhibition of the proliferation of T-47D cells by the PROTAC compounds provided by the present disclosure and the positive control sample

ERα [1] = target: T1, ERα (Homo sapiens, UniProt P03372); assay: Degradation of ERα in T-47D cells (immunoblotting, 4 h); set-up: host or cells: T-47D
T1 sequence (P03372 1-595): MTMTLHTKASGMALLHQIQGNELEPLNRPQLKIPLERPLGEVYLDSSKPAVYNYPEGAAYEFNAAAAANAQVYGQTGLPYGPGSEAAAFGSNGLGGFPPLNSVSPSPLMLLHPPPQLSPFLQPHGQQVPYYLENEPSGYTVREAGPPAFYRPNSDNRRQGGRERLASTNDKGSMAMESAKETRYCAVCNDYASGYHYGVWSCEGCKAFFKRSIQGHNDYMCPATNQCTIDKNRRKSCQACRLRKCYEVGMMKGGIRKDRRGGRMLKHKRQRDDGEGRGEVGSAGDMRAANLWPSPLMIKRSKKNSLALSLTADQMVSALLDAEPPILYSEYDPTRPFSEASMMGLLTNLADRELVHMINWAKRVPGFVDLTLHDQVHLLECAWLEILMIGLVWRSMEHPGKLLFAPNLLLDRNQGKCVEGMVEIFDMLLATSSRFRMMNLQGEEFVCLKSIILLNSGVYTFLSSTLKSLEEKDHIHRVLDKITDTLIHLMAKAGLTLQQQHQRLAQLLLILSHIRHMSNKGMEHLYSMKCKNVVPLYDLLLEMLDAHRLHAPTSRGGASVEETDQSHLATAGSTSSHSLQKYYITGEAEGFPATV
In short: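 ERα protein levels were assessed by immunoblot of RIPA lysates (with protease inhibitor) after 4 h exposure at 37°C. Compound was added in DMSO to T-47D cells at final concentrations of 0.15-1000 nM.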

ERα [2] = target: T1, ERα; assay: Degradation of ERα in MCF-7 cells (immunoblotting, 4 h)
In short: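 Degradation rate reflects ERα band intensity, corrected to an internal reference protein, relative to control. Values come from Western blotting of lysates from MCF-7 cells exposed 4 h at 37°C to compounds at final concentrations of 0.15-1000nM.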

MCF-7 cells = assay: Inhibition of cell proliferation of MCF-7 cells (CCK-8, 9 days)
In short: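 Read-out was CCK-8 viability after 9-day continuous exposure (37°C, 5% CO2) of MCF-7 cells plated at 800/well in 10% FBS DMEM across several compound concentrations. Values are proliferation IC50s.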

[3] = 9 days of treatment, CCK-8, Table 5
[4] = treated for 9 days, CCK-8 kit (Table 6)

| Structure (SMILES) | IC50 (T-47D cells; Table 3) | Degradation rate (%) of ERα in T-47D cells (ERα [1]; 10nM compound) | IC50 (T-47D cells; Table 2) | Degradation rate (%) of ERα in MCF-7 cells (ERα [2]; 10nM compound) | IC50 (MCF-7 cells; [3]) | Degradation rate (%) of ERα in MCF-7 cells (ERα [2]; 1nM compound) | IC50 (MCF-7 cells; [4]) | Degradation rate (%) of ERα in T-47D cells (ERα [1]; 1nM compound) |
| --- | --- | --- | --- | --- | --- | --- | --- | --- |
| O=C1CCC(N2Cc3cc4c(cc3C2=O)CCC2(CN(CC3CCC5(CC3)CCN(c3ccc([C@@H]6c7ccc(O)cc7CC[C@@H]6c6ccccc6)cc3)CC5)C2)O4)C(=O)N1 (stereo partly drawn) [A3 8] | 15 nM | – | – | – | – | – | – | – |
| O=C1CCC(N2C(=O)c3cc4c(cc3C2=O)OC2(CC4)CCN(CC3CCN(c4ccc(C5c6ccc(O)cc6CCC5c5ccccc5)cc4)C3)CC2)C(=O)N1 (stereo not drawn) [A9] | – | -25% | 24 nM | -24% | – | – | – | – |
| O=C1CCC(N2C(=O)c3cc4c(cc3C2=O)C2(CCN(C3CCN(c5ccc(C6c7ccc(O)cc7CCC6c6ccccc6)cc5)CC3)CC2)CO4)C(=O)N1 (stereo not drawn) [A16] | – | -22% | 91 nM | -5% | – | – | – | – |
| O=C1CCC(N2C(=O)c3cc4c(cc3C2=O)C2(CCN(C3CCC5(CC3)CCN(c3ccc(C6c7ccc(O)cc7CCC6c6ccccc6)cc3)CC5)CC2)CO4)C(=O)N1 (stereo not drawn) [A18] | – | 14% | 68 nM | 20% | 170 nM | – | – | – |
| O=C1CCC(N2C(=O)c3cc4c(cc3C2=O)C2(CCN(C3CC5(CCN(c6ccc(C7c8ccc(O)cc8CCC7c7ccccc7)cc6)CC5)C3)CC2)CO4)C(=O)N1 (stereo not drawn) [A19] | – | 18% | 20 nM | 18% | – | – | – | – |
| O=C1CCC(N2Cc3cc4c(cc3C2=O)OC2(CC4)CCN(C3CCC4(CC3)CN(c3ccc(C5c6ccc(O)cc6CCC5c5ccccc5)cc3)C4)CC2)C(=O)N1 (stereo not drawn) [A23] | – | 53% | 9 nM | 14% | 10 nM | – | – | – |
| O=C1CCC(N2C(=O)c3cc4c(cc3C2=O)C2(CCN(CC3CCN(c5ccc(C6c7ccc(O)cc7CCC6c6ccccc6)cc5)C3)CC2)CO4)C(=O)N1 (stereo not drawn) [B1] | – | -15% | 38 nM | -35% | – | – | – | – |
| O=C1CCC(N2C(=O)c3cc4c(cc3C2=O)C2(CCN(CC3CN(c5ccc([C@@H]6c7ccc(O)cc7CC[C@@H]6c6ccccc6)cc5)C3)CC2)CO4)C(=O)N1 (stereo partly drawn) [B3] | – | -18% | 100 nM | -14% | – | – | – | – |
| O=C1CCC(N2Cc3c(ccc4c3OCC43CCN(C4CC5(CCC6(CCN(c7ccc([C@@H]8c9ccc(O)cc9CC[C@@H]8c8ccccc8)cc7)CC6)CC5)C4)CC3)C2=O)C(=O)N1 (stereo partly drawn) [B23] | 10.2 nM | – | – | 40% | – | 17% | 417 nM | – |
| O=C1CCC(N2Cc3c(ccc4c3OCC43CCN(C4CC5(CCC6(CC5)CN(C5CCN(c7ccc([C@@H]8c9ccc(O)cc9CC[C@@H]8c8ccccc8)cc7)CC5)C6)C4)CC3)C2=O)C(=O)N1 (stereo partly drawn) [K16] | 3 nM | – | – | – | – | – | 320 nM and 214 nM | – |
| CC1CC(N2CCC3(CC2)COc2c3ccc3c2CN(C2CCC(=O)NC2=O)C3=O)CCN1C1CCN(c2ccc(C3c4ccc(O)cc4CCC3c3ccccc3)cc2)CC1 (stereo not drawn) [K22] | 8.52 nM | 19% | – | – | – | – | 24.3 nM | -3% |
| O=C1CCC(N2Cc3c(ccc4c3OC3(CC4)CCN(C4CCC5(CC4)CCN(c4ccc([C@@H]6c7ccc(O)cc7CC[C@@H]6c6ccccc6)cc4)CC5)CC3)C2=O)C(=O)N1 (stereo partly drawn) [L20] | – | 41% | – | 6% | – | -12% | 2190 nM | 28% |
| O=C1CCC(N2Cc3c(ccc4c3OC3(CC4)CCN(C4CC5(CCN(c6ccc([C@@H]7c8ccc(O)cc8CC[C@@H]7c7ccccc7)cc6)CC5)C4)CC3)C2=O)C(=O)N1 (stereo partly drawn) [L21] | – | 21% | – | -17% | – | -11% | 91 nM | 26% |
| O=C1CCC(N2Cc3c(ccc4c3OC3(CC4)CCN(C4CCC5(CC4)CN(c4ccc([C@@H]6c7ccc(O)cc7CC[C@@H]6c6ccccc6)cc4)C5)CC3)C2=O)C(=O)N1 (stereo partly drawn) [L22] | – | 9% | – | 18% | – | 3% | 111 nM | -7% |
| O=C1CCC(N2C(=O)c3cc4c(cc3C2=O)OC2(CC4)CN(C3CC4(CCN(c5ccc(C6c7ccc(O)cc7CCC6c6ccccc6)cc5)CC4)C3)C2)C(=O)N1 (stereo not drawn) [M9] | – | – | 101 nM | – | – | – | – | – |
| O=C1CCC(N2C(=O)c3cc4c(cc3C2=O)OC2(CC4)CN(C3CC4(CCN(c5ccc([C@@H]6c7ccc(O)cc7CC[C@@H]6c6ccccc6)cc5)CC4)C3)C2)C(=O)N1 (stereo partly drawn) [M10] | – | 54% | 14 nM | – | – | – | – | 22% |
| O=C1CCC(N2Cc3cc4c(cc3C2=O)OCC2(CCN(C3CC5(CCN(c6ccc([C@@H]7c8ccc(O)cc8CC[C@@H]7c7ccccc7)cc6)CC5)C3)CC2)O4)C(=O)N1 (stereo partly drawn) [M11] | – | 56% | 1 nM | – | 20 nM | – | – | 17% |
| O=C1CCC(N2Cc3cc4c(cc3C2=O)CCC2(CCN(C3CC5(CCN(c6ccc([C@@H]7c8ccc(O)cc8CC[C@@H]7c7ccccc7)cc6)CC5)C3)CC2)O4)C(=O)N1 (stereo partly drawn) [M12] | 2 nM | – | 2 nM | – | 10 nM | – | 12 nM | – |
| O=C1CCC(N2Cc3cc4c(cc3C2=O)CCC2(CN(C3CC5(CCN(c6ccc([C@@H]7c8ccc(O)cc8CC[C@@H]7c7ccccc7)cc6)CC5)C3)C2)O4)C(=O)N1 (stereo partly drawn) [M13] | – | 27% | 1.6 nM | – | 70 nM | – | – | 13% |
| O=C1CCC(N2C(=O)c3cc4c(cc3C2=O)OC2(CC4)CN(CC3CCC4(CC3)CN(c3ccc([C@@H]5c6ccc(O)cc6CC[C@@H]5c5ccccc5)cc3)C4)C2)C(=O)N1 (stereo partly drawn) [M14] | 30 nM | -17% | – | – | – | – | 23 nM | -29% |
| CC1(C(=O)N2CCC(N3CCC4(CC3)COc3c4ccc4c3CN(C3CCC(=O)NC3=O)C4=O)CC2)CCN(c2ccc([C@@H]3c4ccc(O)cc4CC[C@@H]3c3ccccc3)cc2)CC1 (stereo partly drawn) [N1] | 1.18 nM | 79% | – | 68% | – | 54% | – | 58% |
| O=C1CCC(N2Cc3c(ccc4c3OCC43CCN(CC4(F)CCN(CC5CCN(c6ccc([C@@H]7c8ccc(O)cc8CC[C@@H]7c7ccccc7)cc6)CC5)CC4)CC3)C2=O)C(=O)N1 (stereo partly drawn) [N6] | 0.87 nM | 62% | – | 55% | – | 34% | – | 35% |
| N#CC1(CN2CCC3(CC2)COc2c3ccc3c2CN(C2CCC(=O)NC2=O)C3=O)CCN(CC2CCN(c3ccc([C@@H]4c5ccc(O)cc5CC[C@@H]4c4ccccc4)cc3)CC2)CC1 (stereo partly drawn) [N7] | 1.72 nM | 67% | – | 13% | – | 2% | – | 56% |
| O=C1CCC(N2Cc3c(ccc4c3OCC43CCN(C(=O)[C@H]4CC[C@@H](N(CC5CC5)CC5CCN(c6ccc([C@@H]7c8ccc(O)cc8CC[C@@H]7c7ccccc7)cc6)CC5)CC4)CC3)C2=O)C(=O)N1 (stereo partly drawn) [N11] | – | 57% | – | 64% | – | 35% | 4.29 nM | 53% |
| O=C1CCC(N2C(=O)c3cc4c(cc3C2=O)OCC2(CCN(C3CC5(C3)CN(c3ccc(C6c7ccc(O)cc7CCC6c6ccccc6)cc3)C5)CC2)C4)C(=O)N1 (stereo not drawn) [O2] | – | – | 180 nM | – | – | – | – | – |
